Measured values reported in patent US9095579B2 (priority 2012, dated 2015).
“Also recorded” adds a separate entry of the source.

Test system: A/PR/8/34; H1N1 viruses (PR8-WT, PR8-A122V)
Parameters: species or system C57BL/6 mice
Conditions: mouse, in vivo

| SMILES | epithelial damage in lung airways caused by PR8-WT and PR8-A122V (ip) | protection from the effects of influenza infection | columnar organization of the airway epithelium (ip) |
| --- | --- | --- | --- |
| C[C@H]1CC[C@]2(NC1)O[C@H]1C[C@H]3[C@@H]4CC[C@H]5C[C@@H](O)CC[C@]5(C)[C@H]4CC[C@]3(C)[C@H]1[C@@H]2C [tomatidine] | no rescue of airway damage; also recorded: no obvious effect | – | – |
| CC1=C2C[C@H]3[C@@H](CC=C4C[C@@H](O)CC[C@@]43C)[C@@H]2CC[C@]12O[C@@H]1C[C@H](C)CN[C@H]1[C@H]2C [cyclopamine] | reduced epithelial damage; also recorded: partially rescued; also recorded: reduces viral damage in the lung | partially protected | restored a degree of columnar organization |
